Molecules are shown by their SMILES. A value given as a limit tells only on which side of the number the result lay.

Sequence of hCB2R (P34972 whole entry): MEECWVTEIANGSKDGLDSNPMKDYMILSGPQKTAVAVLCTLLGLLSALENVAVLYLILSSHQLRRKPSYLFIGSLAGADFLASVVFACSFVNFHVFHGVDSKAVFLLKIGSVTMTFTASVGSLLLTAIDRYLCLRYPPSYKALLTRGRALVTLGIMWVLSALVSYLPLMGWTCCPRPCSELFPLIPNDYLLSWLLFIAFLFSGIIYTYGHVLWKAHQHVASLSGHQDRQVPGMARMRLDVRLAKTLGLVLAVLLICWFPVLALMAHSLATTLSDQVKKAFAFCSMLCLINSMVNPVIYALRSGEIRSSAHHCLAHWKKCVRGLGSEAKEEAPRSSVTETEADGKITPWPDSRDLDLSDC
T4 sequence (P08588 whole entry): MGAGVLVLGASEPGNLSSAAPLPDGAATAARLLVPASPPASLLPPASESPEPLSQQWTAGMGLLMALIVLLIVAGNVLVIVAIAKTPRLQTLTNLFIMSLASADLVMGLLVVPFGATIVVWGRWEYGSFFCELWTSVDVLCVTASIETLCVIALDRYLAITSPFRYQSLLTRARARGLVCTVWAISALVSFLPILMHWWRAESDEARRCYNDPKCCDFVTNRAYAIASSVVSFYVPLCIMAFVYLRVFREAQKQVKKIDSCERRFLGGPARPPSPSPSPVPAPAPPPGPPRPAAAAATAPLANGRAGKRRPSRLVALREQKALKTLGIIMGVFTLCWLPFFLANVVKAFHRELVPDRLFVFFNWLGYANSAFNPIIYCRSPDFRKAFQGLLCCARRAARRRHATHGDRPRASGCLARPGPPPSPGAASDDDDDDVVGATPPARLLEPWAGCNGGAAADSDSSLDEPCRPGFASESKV
T2 sequence (Q9Y2T6 whole entry): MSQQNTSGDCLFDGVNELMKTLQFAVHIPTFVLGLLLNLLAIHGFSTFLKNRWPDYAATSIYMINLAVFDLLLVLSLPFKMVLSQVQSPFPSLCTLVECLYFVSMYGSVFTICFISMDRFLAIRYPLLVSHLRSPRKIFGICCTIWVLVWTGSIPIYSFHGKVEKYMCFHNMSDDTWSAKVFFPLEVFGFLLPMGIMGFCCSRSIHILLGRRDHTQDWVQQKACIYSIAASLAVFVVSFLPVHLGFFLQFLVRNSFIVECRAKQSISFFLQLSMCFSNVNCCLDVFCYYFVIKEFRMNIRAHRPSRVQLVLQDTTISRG

One data set has as its target hCB2R (Homo sapiens, UniProt P34972). Put plainly: biochemical. The data set is classed as binding.
Conditions: not given
Turning to `COc1ccc(C(=O)c2c(C)n(CCN3CCOCC3)c3cc(I)ccc23)cc1` [AM630], the “pKi ± SEM hCB2R” value was 7.39 ± 0.02.

The same data set, now with this note: CHO membranes; Leiden, HU210 and SR144528 from Roche.
With `CN1CCCC[C@H]1Cn1cc(C(=O)c2cc([N+](=O)[O-])ccc2I)c2ccccc21` [(S)-AM1241], the “pKi ± SEM hCB2R” value worked out at 7.02 ± 0.15.

In the next data set the test system is AR (h). Nature of the data set: CEREP panel. The following applies: 10 µM. The format is binding, human.
Regarding `CN1CCCC[C@H]1Cn1cc(C(=O)c2cc([N+](=O)[O-])ccc2I)c2ccccc21` [(S)-AM1241], the “% inhibition AR (h)” value was 1%.
Same read-out and setting: for `COc1ccc(C(=O)c2c(C)n(CCN3CCOCC3)c3cc(I)ccc23)cc1` [AM630] the value was -7%.

The target of another data set is T1, alpha 1A (h) (Homo sapiens, UniProt P35348).
T1 construct: CEREP
T1 sequence (P35348 1-466): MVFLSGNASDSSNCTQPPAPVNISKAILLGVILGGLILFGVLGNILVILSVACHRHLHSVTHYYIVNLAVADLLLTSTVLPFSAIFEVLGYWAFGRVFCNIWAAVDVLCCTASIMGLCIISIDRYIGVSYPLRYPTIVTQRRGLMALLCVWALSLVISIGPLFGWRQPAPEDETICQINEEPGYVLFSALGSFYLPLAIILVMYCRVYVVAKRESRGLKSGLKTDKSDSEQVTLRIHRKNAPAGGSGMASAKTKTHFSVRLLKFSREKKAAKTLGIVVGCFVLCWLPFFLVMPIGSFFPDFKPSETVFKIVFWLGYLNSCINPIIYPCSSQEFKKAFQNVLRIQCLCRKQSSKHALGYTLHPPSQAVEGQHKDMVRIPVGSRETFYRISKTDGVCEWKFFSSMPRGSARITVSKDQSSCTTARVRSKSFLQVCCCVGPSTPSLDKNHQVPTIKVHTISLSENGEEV
Put plainly: CEREP panel. The format is binding. The note with it: 10 µM.
As for `CN1CCCC[C@H]1Cn1cc(C(=O)c2cc([N+](=O)[O-])ccc2I)c2ccccc21` [(S)-AM1241], the “% inhibition alpha 1A (h)” value is 75%.
On the same count and under the same terms, for `COc1ccc(C(=O)c2c(C)n(CCN3CCOCC3)c3cc(I)ccc23)cc1` [AM630] the value was 47%.

Test system in a further data set: not given
Assay: not given
The note with it: 1 μM.
With `CN1CCCC[C@H]1Cn1cc(C(=O)c2cc([N+](=O)[O-])ccc2I)c2ccccc21` [(S)-AM1241], the CL hepatocytes human was 37 µL/min/mio cells.
For the compound `COc1ccc(C(=O)c2c(C)n(CCN3CCOCC3)c3cc(I)ccc23)cc1` [AM630], the CL hepatocytes human was 16 µL/min/mio cells.

Test system in the next data set: not given
Assay: not given
The note with it: 1 μM. The source holds these as a separate data set.
Compound `CN1CCCC[C@H]1Cn1cc(C(=O)c2cc([N+](=O)[O-])ccc2I)c2ccccc21` [(S)-AM1241] yielded a CL microsomes mouse of 640 µL/min/mg protein.
On the same count and under the same terms, for `COc1ccc(C(=O)c2c(C)n(CCN3CCOCC3)c3cc(I)ccc23)cc1` [AM630] the value was 468 µL/min/mg protein.

Another data set concerns the target T2, hGPR55 (Homo sapiens, UniProt Q9Y2T6).
T2 construct: host or cells: CHO-K1 (PathHunter hGPR55_bgal)
Nature of the data set: cell-based. The note with it: β-arrestin recruitment. On the technique in general: Recruitment of arrestin is a read-out of receptor activation apart from second messengers.
`COc1ccc(C(=O)c2c(C)n(CCN3CCOCC3)c3cc(I)ccc23)cc1` [AM630]: the “GPR55 pEC50 (± SEM)” value was under 5.

For another data set, the target named is T3, Rat recombinant TRPV4 (Rattus norvegicus, UniProt Q9ERZ8).
T3 construct: expressed in transfected cells; host or cells: HEK293 (TRPV4-HEK-293, gift from HB Bradshaw, Indiana University)
T3 sequence (Q9ERZ8 whole entry): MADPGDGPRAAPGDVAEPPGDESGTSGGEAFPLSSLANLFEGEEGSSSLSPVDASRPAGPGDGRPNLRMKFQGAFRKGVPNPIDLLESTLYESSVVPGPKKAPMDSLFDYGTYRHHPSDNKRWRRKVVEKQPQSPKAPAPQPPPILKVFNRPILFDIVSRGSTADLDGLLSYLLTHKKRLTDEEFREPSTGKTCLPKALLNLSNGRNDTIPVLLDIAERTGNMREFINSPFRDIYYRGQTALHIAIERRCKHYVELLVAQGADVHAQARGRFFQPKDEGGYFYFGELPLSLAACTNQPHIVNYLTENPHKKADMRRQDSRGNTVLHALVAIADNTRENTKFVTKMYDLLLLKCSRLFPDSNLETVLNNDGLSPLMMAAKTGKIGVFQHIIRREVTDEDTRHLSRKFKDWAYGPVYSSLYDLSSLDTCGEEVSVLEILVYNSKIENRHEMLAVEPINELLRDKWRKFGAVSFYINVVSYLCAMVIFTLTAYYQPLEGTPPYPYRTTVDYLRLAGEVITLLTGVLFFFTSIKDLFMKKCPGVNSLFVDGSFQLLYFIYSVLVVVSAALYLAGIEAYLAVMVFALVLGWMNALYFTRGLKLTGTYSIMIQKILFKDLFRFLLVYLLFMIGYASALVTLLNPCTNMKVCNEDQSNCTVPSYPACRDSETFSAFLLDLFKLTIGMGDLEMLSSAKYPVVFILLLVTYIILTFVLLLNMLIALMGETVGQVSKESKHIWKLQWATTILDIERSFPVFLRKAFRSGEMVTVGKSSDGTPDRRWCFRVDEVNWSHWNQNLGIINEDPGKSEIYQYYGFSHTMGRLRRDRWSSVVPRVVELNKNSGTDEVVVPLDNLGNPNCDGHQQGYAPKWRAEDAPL
Nature of the data set: cell-based. The format is cell-based.
Conditions: not given
As to `CN1CCCC[C@H]1Cn1cc(C(=O)c2cc([N+](=O)[O-])ccc2I)c2ccccc21` [(S)-AM1241], the “TRPV4 Efficacy (% ionomycin 4μM)” value is under 10%.
For the compound `COc1ccc(C(=O)c2c(C)n(CCN3CCOCC3)c3cc(I)ccc23)cc1` [AM630], the “TRPV4 Efficacy (% ionomycin 4μM)” value was under 10%.

The same data set, now with this note: vs 4αPDD 1μM; read-out: TRPV4 IC50 for desensitization.
Broadly, the IC50 is the concentration that gives 50% inhibition. On to `CN1CCCC[C@H]1Cn1cc(C(=O)c2cc([N+](=O)[O-])ccc2I)c2ccccc21` [(S)-AM1241], for which the IC50 stood at 8.6 ± 0.3 µM.
Still for that read-out and setting: as for `COc1ccc(C(=O)c2c(C)n(CCN3CCOCC3)c3cc(I)ccc23)cc1` [AM630], the figure is 3.2 ± 0.1 µM.

A further data set has as its target T4, beta 1 (h) (Homo sapiens, UniProt P08588).
T4 construct: CEREP
Nature of the data set: biochemical. The note with it: 10 µM. The data set is classed as binding.
As to `CN1CCCC[C@H]1Cn1cc(C(=O)c2cc([N+](=O)[O-])ccc2I)c2ccccc21` [(S)-AM1241], the “% inhibition beta 1 (h)” value is listed as 14%.
Turning to `COc1ccc(C(=O)c2c(C)n(CCN3CCOCC3)c3cc(I)ccc23)cc1` [AM630], the “% inhibition beta 1 (h)” value amounted to 9%.

A further data set deals with T5, AT1 (h) (Homo sapiens, UniProt P30556).
T5 construct: CEREP
T5 sequence (P30556 1-359): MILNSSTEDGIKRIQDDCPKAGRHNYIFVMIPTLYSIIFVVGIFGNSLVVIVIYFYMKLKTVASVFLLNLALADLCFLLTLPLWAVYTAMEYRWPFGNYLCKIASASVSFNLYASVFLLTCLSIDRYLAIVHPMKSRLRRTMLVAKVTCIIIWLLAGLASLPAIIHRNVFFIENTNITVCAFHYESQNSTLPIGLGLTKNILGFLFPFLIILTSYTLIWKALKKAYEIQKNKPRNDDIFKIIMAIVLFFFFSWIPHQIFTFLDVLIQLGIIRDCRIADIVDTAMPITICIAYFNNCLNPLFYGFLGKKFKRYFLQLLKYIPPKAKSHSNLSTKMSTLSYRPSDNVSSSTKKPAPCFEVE
Put plainly: CEREP panel. The format is binding. The note with it: 10 µM.
For the compound `CN1CCCC[C@H]1Cn1cc(C(=O)c2cc([N+](=O)[O-])ccc2I)c2ccccc21` [(S)-AM1241], the “% inhibition AT1 (h)” value was found to be 1%.
Still for that read-out and setting: for `COc1ccc(C(=O)c2c(C)n(CCN3CCOCC3)c3cc(I)ccc23)cc1` [AM630] the value was 17%.

In a further data set the test system is AEA cellular uptake in U937 cells. Put plainly: cells. The format is cell-based, human. The note with it: 10 µM (values marked *).
As to `COc1ccc(C(=O)c2c(C)n(CCN3CCOCC3)c3cc(I)ccc23)cc1` [AM630], the “AEA reuptake % inhibition, effect at 10 µM, U937 cells” value came to 23%.

The same data set, now with this note: from dose-response.
On to `CN1CCCC[C@H]1Cn1cc(C(=O)c2cc([N+](=O)[O-])ccc2I)c2ccccc21` [(S)-AM1241], for which the “AEA reuptake Efficacy (% inhibition) U937 cells” value was found to be 97%.

Still in this data set, the particulars now being: read-out: AEA reuptake IC50 (95% CI) U937 cells.
In the case of `CN1CCCC[C@H]1Cn1cc(C(=O)c2cc([N+](=O)[O-])ccc2I)c2ccccc21` [(S)-AM1241], the IC50 came to 3.7 µM.
On the same count and under the same terms, as for `COc1ccc(C(=O)c2c(C)n(CCN3CCOCC3)c3cc(I)ccc23)cc1` [AM630], the figure is over 10 µM.

For another data set, the target named is T6, kappa (KOP) (Rattus norvegicus, UniProt P34975).
T6 construct: CEREP (contract assay)
T6 sequence (P34975 whole entry): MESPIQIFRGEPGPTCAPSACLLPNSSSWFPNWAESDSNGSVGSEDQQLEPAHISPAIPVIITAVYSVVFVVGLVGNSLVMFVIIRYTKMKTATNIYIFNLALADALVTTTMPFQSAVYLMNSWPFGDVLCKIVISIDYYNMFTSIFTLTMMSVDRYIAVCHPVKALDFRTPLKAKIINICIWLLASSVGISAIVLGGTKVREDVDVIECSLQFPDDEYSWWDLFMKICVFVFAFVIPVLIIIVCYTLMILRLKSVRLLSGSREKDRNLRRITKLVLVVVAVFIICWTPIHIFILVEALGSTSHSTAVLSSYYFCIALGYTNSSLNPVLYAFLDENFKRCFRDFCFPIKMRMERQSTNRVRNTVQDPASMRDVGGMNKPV
Nature of the data set: CEREP panel. The format is binding. The following applies: 10 µM.
Take `CN1CCCC[C@H]1Cn1cc(C(=O)c2cc([N+](=O)[O-])ccc2I)c2ccccc21` [(S)-AM1241]: the “% inhibition kappa (KOP)” value is given as 87%.
On the same count and under the same terms, as for `COc1ccc(C(=O)c2c(C)n(CCN3CCOCC3)c3cc(I)ccc23)cc1` [AM630], the figure is 57%.

The target in another data set is T7, FAAH (Homo sapiens, UniProt O00519).
T7 construct: host or cells: U937
T7 sequence (O00519 1-579): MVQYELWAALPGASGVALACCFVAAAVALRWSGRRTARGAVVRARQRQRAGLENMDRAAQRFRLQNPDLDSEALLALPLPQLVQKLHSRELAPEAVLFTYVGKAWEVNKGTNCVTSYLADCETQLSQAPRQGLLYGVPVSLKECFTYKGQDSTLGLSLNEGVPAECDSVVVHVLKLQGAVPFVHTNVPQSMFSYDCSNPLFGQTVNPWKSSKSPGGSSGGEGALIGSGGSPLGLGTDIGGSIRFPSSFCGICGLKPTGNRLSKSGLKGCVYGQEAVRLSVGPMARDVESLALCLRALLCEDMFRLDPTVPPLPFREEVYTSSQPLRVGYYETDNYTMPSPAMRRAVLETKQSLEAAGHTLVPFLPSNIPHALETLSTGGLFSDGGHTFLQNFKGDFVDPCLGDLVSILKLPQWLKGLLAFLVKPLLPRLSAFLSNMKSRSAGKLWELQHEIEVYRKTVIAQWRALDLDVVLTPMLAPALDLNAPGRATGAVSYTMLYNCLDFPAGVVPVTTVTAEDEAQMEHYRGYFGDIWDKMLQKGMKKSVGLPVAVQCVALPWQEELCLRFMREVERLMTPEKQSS
Nature of the data set: FAAH activity, U937 cell homogenate. The format is biochemical. The following applies: 5 µM, U937 cell homogenate. The procedure:
FAAH activity was assessed using U937 cell homogenate (source: U937 cells were purchased from ATCC, Manassas, VA, USA). Tested compounds (at the concentrations of 1 and 5 μM) or solvent (≤1% of the final volume) were pre-incubated at 37 °C for 30 min with 100 μg of cell homogenate diluted in assay buffer (10 mM Tris-HCl and 1 mM EDTA, pH 7.6 and 1% w/v fatty acid-free BSA). Successively, a mixture of 99.5 nM […] of AEA and 0.5 nM of [ethanolamine-1-3H]-AEA (40–60 Ci mmol^−1) was added to the homogenate (final concentration of 100 nM) and incubated for 10 min at 37 °C under shaking. After the incubation time, 2 volumes of an ice-cold methanol: chloroform mixture 1:1 (v/v) were added to each sample, vigorously vortexed and centrifuged at 10,000g for 10 min at 4 °C to separate aqueous and organic phases. The aqueous phases were collected and the radioactivity associated with the hydrolysis product [3H]-ethanolamine was measured after addition of 3 ml of scintillation cocktail using the Tri-Carb 2100 TR scintillation counter. Data were collected from three independent experiments performed in triplicate and results were expressed as FAAH activity, relative to that in vehicle-treated samples (=100%).
`CN1CCCC[C@H]1Cn1cc(C(=O)c2cc([N+](=O)[O-])ccc2I)c2ccccc21` [(S)-AM1241]: the “FAAH % inhibition at 5 µM” value is listed as under 25%.

The next data set concerns AEA cellular uptake in HMC-1 cells. Nature of the data set: cells. The format is cell-based, human. The following applies: read-out: AEA reuptake IC50 (95% CI) HMC-1 cells; FAAH-deficient cells.
For `CN1CCCC[C@H]1Cn1cc(C(=O)c2cc([N+](=O)[O-])ccc2I)c2ccccc21` [(S)-AM1241], the IC50 is over 5 µM.
Same read-out and setting: for `COc1ccc(C(=O)c2c(C)n(CCN3CCOCC3)c3cc(I)ccc23)cc1` [AM630] the value was over 10 µM.

The test system of another data set is Na+ channel (site 2).
Assay: not given
The format is binding. The following applies: 10 µM.
With `CN1CCCC[C@H]1Cn1cc(C(=O)c2cc([N+](=O)[O-])ccc2I)c2ccccc21` [(S)-AM1241], the “% inhibition Na+ channel (site 2)” value amounted to 87%.

For the origin of these results see article PMC5216056 (Nature Communications, 2017).
